Results: the kinase profiling compilation of Christmann-Franck et al. (2016)
“And” between values parts separate entries of the source, which are not always exact repeats. Equal entries are not always repeated.

Columns and labels:
Assay in all cases: radiometric filter-binding kinase assay, Kinaseprofiler
[1] = target: YES1 (human) (UniProt P07947); conditions: ATP 45 µM
[2] = target: MAPK11 (human) (UniProt Q15759); conditions: ATP 45 µM
[3] = target: LCK (human) (UniProt P06239); conditions: ATP 90 µM
[4] = target: PRKCG (human) (UniProt P05129); conditions: ATP 15 µM
[5] = target: CDK9 CCNT1 (human) (UniProt P50750+O60563); conditions: ATP 45 µM
[6] = target: FGR (human) (UniProt P09769); conditions: ATP 45 µM
[7] = target: STK24 (human) (UniProt Q9Y6E0); conditions: ATP 15 µM
[8] = target: PRKCB1 (human) (UniProt P05771); conditions: ATP 10 µM
[9] = target: ABL2 (human) (UniProt P42684); conditions: ATP 45 µM
[10] = target: CDC42BPB (human) (UniProt Q9Y5S2); conditions: ATP 10 µM
[11] = target: RPS6KA1 KD1 KD2 (human) (UniProt Q15418); conditions: ATP 45 µM
[12] = target: PASK (human) (UniProt Q96RG2); conditions: ATP 15 µM
[13] = target: LYN (human) (UniProt P07948); conditions: ATP 70 µM
[14] = target: PRKAA2 PRKAB1 PRKAG1 (human) (UniProt P54619+P54646+Q9Y478); conditions: ATP 45 µM
[15] = target: FES (human) (UniProt P07332); conditions: ATP 45 µM
[16] = target: MYLK (human) (UniProt Q15746); conditions: ATP 70 µM
[17] = target: TAOK2 (human) (UniProt Q9UL54); conditions: ATP 15 µM
[18] = target: NEK3 (human) (UniProt P51956); conditions: ATP 120 µM
[19] = target: PIM2 (human) (UniProt Q9P1W9); conditions: ATP 15 µM
[20] = target: MAP3K7 (human) (UniProt O43318); conditions: ATP 45 µM
[21] = target: LIMK1 (human) (UniProt P53667); conditions: ATP 15 µM
[22] = target: TNK2 (human) (UniProt Q07912); conditions: ATP 70 µM
[23] = target: PKN2 (human) (UniProt Q16513); conditions: ATP 15 µM
[24] = target: CLK2 (human) (UniProt P49760); conditions: ATP 15 µM
[25] = target: PIM1 (human) (UniProt P11309); conditions: ATP 90 µM
[26] = target: MAPK12 (human) (UniProt P53778); conditions: ATP 15 µM
[27] = target: PTK6 (human) (UniProt Q13882); conditions: ATP 15 µM
[28] = target: MAPK14 (human) (UniProt Q16539); conditions: ATP 90 µM
[29] = target: EPHB3 (human) (UniProt P54753); conditions: ATP 90 µM
[30] = target: EPHA3 (human) (UniProt P29320); conditions: ATP 120 µM
[31] = target: ROCK2 (human) (UniProt O75116); conditions: ATP 15 µM
[32] = target: MINK1 (human) (UniProt Q8N4C8); conditions: ATP 185 µM
[33] = target: PAK6 (human) (UniProt Q9NQU5); conditions: ATP 10 µM

Chain of LCK (human) (P06239 whole entry, looked up): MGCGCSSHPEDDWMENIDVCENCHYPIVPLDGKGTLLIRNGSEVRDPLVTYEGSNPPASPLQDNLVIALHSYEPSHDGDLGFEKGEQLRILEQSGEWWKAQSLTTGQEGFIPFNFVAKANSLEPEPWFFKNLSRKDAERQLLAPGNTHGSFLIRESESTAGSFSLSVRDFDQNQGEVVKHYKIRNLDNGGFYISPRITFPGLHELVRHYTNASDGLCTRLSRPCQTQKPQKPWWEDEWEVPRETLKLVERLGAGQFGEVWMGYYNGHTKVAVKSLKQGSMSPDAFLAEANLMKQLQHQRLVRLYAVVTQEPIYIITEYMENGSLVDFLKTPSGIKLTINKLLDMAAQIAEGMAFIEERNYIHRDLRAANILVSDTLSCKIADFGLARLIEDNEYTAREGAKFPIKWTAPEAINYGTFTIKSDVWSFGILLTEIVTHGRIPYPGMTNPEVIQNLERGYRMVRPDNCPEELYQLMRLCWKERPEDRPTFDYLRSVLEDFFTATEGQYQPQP
Chain of PASK (human) (Q96RG2 whole entry, looked up): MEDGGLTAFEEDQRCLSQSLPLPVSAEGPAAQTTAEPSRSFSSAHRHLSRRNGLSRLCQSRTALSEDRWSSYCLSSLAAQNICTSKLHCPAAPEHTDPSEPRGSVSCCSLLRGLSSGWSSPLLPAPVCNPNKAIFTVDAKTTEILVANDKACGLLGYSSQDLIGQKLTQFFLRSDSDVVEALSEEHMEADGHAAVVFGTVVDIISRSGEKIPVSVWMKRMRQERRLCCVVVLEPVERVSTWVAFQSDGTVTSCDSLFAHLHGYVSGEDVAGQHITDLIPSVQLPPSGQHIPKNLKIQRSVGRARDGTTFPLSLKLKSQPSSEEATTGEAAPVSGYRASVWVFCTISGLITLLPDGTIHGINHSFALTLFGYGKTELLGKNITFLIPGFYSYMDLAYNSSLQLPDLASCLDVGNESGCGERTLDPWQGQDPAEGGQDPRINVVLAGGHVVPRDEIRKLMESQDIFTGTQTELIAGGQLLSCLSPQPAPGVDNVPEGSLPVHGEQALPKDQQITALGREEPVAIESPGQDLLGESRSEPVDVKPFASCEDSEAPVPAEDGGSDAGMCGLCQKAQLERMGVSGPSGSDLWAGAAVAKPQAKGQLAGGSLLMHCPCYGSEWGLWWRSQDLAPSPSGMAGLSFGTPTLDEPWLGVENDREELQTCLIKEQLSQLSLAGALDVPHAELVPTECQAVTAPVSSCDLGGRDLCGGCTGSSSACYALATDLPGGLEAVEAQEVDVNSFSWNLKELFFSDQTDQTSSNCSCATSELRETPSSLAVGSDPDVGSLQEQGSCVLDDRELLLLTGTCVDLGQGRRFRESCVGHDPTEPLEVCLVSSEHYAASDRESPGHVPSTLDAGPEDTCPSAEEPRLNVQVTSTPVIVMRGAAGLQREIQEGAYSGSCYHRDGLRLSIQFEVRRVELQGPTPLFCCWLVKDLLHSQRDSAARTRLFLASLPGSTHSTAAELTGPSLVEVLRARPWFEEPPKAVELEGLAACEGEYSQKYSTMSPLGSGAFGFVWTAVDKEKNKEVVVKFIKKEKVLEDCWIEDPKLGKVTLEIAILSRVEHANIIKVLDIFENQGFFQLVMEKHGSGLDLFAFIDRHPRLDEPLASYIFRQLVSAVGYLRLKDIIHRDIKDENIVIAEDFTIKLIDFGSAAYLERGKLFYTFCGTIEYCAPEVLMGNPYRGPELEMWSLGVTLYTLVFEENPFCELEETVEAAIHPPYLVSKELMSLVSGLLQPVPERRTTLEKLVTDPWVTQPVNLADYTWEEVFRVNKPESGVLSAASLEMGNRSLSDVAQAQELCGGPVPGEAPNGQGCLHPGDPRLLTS
Chain of PIM1 (human) (P11309 whole entry, looked up): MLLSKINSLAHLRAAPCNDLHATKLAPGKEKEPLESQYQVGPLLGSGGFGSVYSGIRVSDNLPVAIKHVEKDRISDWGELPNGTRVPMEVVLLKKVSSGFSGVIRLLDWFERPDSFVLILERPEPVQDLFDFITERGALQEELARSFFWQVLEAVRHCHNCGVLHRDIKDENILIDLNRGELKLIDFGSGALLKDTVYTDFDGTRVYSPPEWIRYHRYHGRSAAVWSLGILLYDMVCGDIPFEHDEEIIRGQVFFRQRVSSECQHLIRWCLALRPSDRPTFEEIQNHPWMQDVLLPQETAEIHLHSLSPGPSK
Chain of NEK3 (human) (P51956 whole entry, looked up): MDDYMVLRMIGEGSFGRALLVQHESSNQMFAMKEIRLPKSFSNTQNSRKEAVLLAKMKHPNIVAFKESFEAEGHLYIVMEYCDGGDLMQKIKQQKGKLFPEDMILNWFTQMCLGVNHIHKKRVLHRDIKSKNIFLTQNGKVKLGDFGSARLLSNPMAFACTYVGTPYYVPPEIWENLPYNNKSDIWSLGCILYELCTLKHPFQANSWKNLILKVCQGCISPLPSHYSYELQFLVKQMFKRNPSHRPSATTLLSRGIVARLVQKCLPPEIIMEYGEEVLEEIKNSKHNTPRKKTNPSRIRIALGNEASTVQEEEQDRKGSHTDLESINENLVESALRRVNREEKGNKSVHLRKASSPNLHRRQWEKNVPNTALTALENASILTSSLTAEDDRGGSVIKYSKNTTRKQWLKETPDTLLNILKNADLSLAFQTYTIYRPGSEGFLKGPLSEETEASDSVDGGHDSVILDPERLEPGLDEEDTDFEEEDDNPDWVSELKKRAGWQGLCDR
Chain of MAPK11 (human) (Q15759 whole entry, looked up): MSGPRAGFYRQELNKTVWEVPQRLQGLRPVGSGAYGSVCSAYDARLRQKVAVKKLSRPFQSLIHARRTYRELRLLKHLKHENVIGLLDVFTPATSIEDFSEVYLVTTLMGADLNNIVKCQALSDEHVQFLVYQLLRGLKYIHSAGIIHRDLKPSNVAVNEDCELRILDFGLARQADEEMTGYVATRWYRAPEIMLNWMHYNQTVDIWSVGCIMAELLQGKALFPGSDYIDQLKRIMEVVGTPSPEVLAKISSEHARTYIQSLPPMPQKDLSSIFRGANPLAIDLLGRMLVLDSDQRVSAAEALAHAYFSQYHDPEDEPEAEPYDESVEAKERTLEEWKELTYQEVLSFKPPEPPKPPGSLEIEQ
Chain of MAPK14 (human) (Q16539 whole entry, looked up): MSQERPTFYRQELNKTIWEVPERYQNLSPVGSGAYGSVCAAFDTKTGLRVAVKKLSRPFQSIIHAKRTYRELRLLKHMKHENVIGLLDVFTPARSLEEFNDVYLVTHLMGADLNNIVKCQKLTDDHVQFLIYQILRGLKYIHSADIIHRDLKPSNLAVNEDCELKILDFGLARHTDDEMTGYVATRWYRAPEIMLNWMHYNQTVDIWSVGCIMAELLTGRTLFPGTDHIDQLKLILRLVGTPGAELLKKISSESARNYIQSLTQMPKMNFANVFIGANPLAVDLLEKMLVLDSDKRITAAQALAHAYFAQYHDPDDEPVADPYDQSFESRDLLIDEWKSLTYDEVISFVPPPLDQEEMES
Chain of MINK1 (human) (Q8N4C8 whole entry, looked up): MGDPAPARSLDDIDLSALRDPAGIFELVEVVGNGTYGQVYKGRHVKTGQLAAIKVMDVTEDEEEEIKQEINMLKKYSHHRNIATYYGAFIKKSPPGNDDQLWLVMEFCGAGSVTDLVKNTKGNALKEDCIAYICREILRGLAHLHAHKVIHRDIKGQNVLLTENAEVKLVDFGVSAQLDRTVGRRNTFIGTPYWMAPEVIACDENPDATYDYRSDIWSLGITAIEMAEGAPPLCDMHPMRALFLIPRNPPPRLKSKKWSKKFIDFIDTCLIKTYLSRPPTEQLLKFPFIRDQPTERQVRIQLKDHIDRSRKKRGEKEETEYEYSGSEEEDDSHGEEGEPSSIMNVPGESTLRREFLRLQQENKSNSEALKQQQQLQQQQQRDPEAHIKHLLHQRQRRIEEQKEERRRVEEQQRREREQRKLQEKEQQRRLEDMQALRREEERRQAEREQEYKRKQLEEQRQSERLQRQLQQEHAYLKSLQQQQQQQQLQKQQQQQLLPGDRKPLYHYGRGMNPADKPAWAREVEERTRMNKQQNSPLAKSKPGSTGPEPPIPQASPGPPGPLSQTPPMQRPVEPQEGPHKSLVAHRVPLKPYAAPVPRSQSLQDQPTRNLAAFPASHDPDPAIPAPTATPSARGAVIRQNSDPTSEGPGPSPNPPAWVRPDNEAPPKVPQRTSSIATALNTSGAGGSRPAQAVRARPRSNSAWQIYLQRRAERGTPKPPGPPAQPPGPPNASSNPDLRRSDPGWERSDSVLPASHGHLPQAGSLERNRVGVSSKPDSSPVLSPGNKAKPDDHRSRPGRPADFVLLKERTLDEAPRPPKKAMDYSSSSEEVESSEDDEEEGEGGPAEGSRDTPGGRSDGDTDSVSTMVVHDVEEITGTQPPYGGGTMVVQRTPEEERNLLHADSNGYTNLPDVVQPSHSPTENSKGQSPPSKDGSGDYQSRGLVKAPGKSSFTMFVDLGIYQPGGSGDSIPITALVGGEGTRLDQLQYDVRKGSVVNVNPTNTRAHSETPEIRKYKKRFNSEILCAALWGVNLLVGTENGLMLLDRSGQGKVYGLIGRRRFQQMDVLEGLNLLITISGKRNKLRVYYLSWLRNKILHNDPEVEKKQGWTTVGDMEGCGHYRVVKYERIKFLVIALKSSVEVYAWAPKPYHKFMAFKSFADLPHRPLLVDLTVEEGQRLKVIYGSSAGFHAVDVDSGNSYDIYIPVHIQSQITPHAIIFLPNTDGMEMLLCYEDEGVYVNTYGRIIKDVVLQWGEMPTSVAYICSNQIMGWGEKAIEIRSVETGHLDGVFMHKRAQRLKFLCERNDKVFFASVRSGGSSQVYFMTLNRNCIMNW
Chain of PIM2 (human) (Q9P1W9 whole entry, looked up): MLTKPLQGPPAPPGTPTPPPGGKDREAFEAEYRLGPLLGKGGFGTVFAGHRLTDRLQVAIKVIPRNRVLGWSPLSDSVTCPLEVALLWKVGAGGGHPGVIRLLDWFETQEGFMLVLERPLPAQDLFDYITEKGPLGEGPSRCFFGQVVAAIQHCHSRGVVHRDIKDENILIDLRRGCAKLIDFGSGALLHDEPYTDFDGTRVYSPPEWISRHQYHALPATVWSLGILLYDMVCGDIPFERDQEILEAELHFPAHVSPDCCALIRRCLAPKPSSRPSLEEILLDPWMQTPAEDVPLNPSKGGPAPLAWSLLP

residual activity ([1]; compound 1.0 µM): 17% | residual activity ([1]; compound 10.0 µM): 0% | residual activity ([2]; compound 1.0 µM): 101% | residual activity ([2]; compound 10.0 µM): 90% | residual activity ([3]; compound 1.0 µM): 13% and 22% | residual activity ([3]; compound 10.0 µM): 6% and 17% | residual activity ([4]; compound 1.0 µM): 92% | residual activity ([4]; compound 10.0 µM): 73% | residual activity ([5]; compound 1.0 µM): 26% | residual activity ([5]; compound 10.0 µM): 11% | residual activity ([6]; compound 1.0 µM): 8% | residual activity ([6]; compound 10.0 µM): 1% | residual activity ([7]; compound 1.0 µM): 42% | residual activity ([7]; compound 10.0 µM): 10% | residual activity ([8]; compound 1.0 µM): 93% | residual activity ([8]; compound 10.0 µM): 94% | residual activity ([9]; compound 1.0 µM): 30% | residual activity ([9]; compound 10.0 µM): 28% | residual activity ([10]; compound 1.0 µM): 106% | residual activity ([10]; compound 10.0 µM): 103% | residual activity ([11]; compound 1.0 µM): 40% | residual activity ([11]; compound 10.0 µM): 6% | residual activity ([12]; compound 1.0 µM): 112% | residual activity ([12]; compound 10.0 µM): 76% | residual activity ([13]; compound 1.0 µM): 8% | residual activity ([13]; compound 10.0 µM): 2% | residual activity ([14]; compound 1.0 µM): 1% | residual activity ([14]; compound 10.0 µM): 3% | residual activity ([15]; compound 1.0 µM): 72% | residual activity ([15]; compound 10.0 µM): 30% | residual activity ([16]; compound 1.0 µM): 46% | residual activity ([16]; compound 10.0 µM): 13% | residual activity ([17]; compound 1.0 µM): 75% | residual activity ([17]; compound 10.0 µM): 26% | residual activity ([18]; compound 1.0 µM): 86% | residual activity ([18]; compound 10.0 µM): 94% | residual activity ([19]; compound 1.0 µM): 68% | residual activity ([19]; compound 10.0 µM): 38% | residual activity ([20]; compound 1.0 µM): 64% | residual activity ([20]; compound 10.0 µM): 71% | residual activity ([21]; compound 1.0 µM): 61% | residual activity ([21]; compound 10.0 µM): 21% | residual activity ([22]; compound 1.0 µM): 34% | residual activity ([22]; compound 10.0 µM): 4% | residual activity ([23]; compound 1.0 µM): 91% | residual activity ([23]; compound 10.0 µM): 48% | residual activity ([24]; compound 1.0 µM): 14% | residual activity ([24]; compound 10.0 µM): 4% | residual activity ([25]; compound 1.0 µM): 76% | residual activity ([25]; compound 10.0 µM): 47% | residual activity ([26]; compound 1.0 µM): 95% | residual activity ([26]; compound 10.0 µM): 84% | residual activity ([27]; compound 1.0 µM): 91% | residual activity ([27]; compound 10.0 µM): 23% | residual activity ([28]; compound 1.0 µM): 94% | residual activity ([28]; compound 10.0 µM): 78% | residual activity ([29]; compound 1.0 µM): 105% | residual activity ([29]; compound 10.0 µM): 103% | residual activity ([30]; compound 1.0 µM): 58% | residual activity ([30]; compound 10.0 µM): 9% | residual activity ([31]; compound 1.0 µM): 85% | residual activity ([31]; compound 10.0 µM): 82% | residual activity ([32]; compound 1.0 µM): 54% | residual activity ([32]; compound 10.0 µM): 10% | residual activity ([33]; compound 1.0 µM): 63% | residual activity ([33]; compound 10.0 µM): 37%
Structure (SMILES): O=C1Nc2ccccc2/C1=C1\Nc2ccccc2\C1=N/O
